Measurements taken from patent US20070128217A1 (priority 2003, published 2007).

Columns and labels:
[1] = tested on: antibodies in sera from SARS patients (sera 1a, 1b, 2, 6, 37, 62, London, SARS-yellow, SARS-green); assay type: binding, human; parameters: Binding of serum 6 to linear peptides of protein X1 of SARS-CoV Urbani / Binding of serum 37 to linear peptides of protein X1 of SARS-CoV Urbani / Binding of serum 6 to looped/cyclic peptide (PEPSCAN-ELISA) / Binding of serum 37 to looped/cyclic peptide (PEPSCAN-ELISA) / Binding of serum 37 to looped/cyclic peptides of protein X1 of SARS-CoV Urbani / Binding of serum 6 to linear peptides of protein X2 / Binding of serum 37 to linear peptides of protein X2 / Binding of serum 37 to looped/cyclic peptides of protein X2 of SARS-CoV Urbani / Binding of serum 6 to linear peptides of protein M of SARS-CoV Urbani / Binding of serum 37 to linear peptides of protein M of SARS-CoV Urbani / Binding of serum 6 to looped/cyclic peptides of protein M of SARS-CoV Urbani / Binding of serum 37 to looped/cyclic peptides of protein M of SARS-CoV Urbani / Binding of serum 6 to linear peptides of protein X3 of SARS-CoV Urbani / Binding of serum 37 to linear peptides of protein X3 of SARS-CoV Urbani / Binding of serum 37 to looped/cyclic peptides of protein X3 of SARS-CoV Urbani / Binding of serum 6 to linear peptides of protein X4 of SARS-CoV Urbani / Binding of serum 37 to linear peptides of protein X4 of SARS-CoV Urbani / Binding of serum 37 to looped/cyclic peptides of protein X4 of SARS-CoV Urbani / Binding of serum 6 to linear peptides of protein X5 of SARS-CoV Urbani / Binding of serum 37 to linear peptides of protein X5 of SARS-CoV Urbani / Binding of serum 37 to looped/cyclic peptides of protein X5 of SARS-CoV Urbani / Binding of serum 6 to linear peptides of protein N of SARS-CoV Urbani / Binding of serum 37 to linear peptides of protein N of SARS-CoV Urbani / Binding of serum 6 to linear peptide (PEPSCAN-ELISA) / Binding of serum 1a to looped/cyclic peptides of protein N of SARS-CoV Urbani / Binding of serum 1b to looped/cyclic peptides of protein N of SARS-CoV Urbani / Binding of serum 2 to looped/cyclic peptides of protein N of SARS-CoV Urbani / Binding of serum 6 to looped/cyclic peptides of protein N of SARS-CoV Urbani / Binding of serum 37 to looped/cyclic peptides of protein N of SARS-CoV Urbani / Binding of serum 62 to looped/cyclic peptides of protein N of SARS-CoV Urbani / Binding of serum London to looped/cyclic peptides of protein N of SARS-CoV Urbani / Binding of serum SARS-green to looped/cyclic peptides of protein N of SARS-CoV Urbani: unit not given here
[2] = tested on: control sera (pooled serum of ten healthy LUMC hospital workers; commercial negative donor pooled serum from the Dutch bloodbank); assay type: binding, human; parameters: Binding of Control serum LUMC to linear peptides / Binding of Control serum Blood-bank to linear peptides / Binding of Control serum LUMC to looped peptides / Binding of Control Serum Blood-Bank to Looped peptides / Binding of Control serum LUMC to linear peptides of the protein M of SARS-CoV Urbani / Binding of Control serum Blood-bank to linear peptides of the protein M of SARS-CoV Urbani / Binding of Control serum LUMC to looped peptides of the protein M of SARS-CoV Urbani / Binding of Control Serum Blood-Bank to Looped peptides of the protein M of SARS-CoV Urbani: unit not given here
[3] = tested on: rabbit serum obtained by immunizing a rabbit with the SARS-CoV strain Frankfurt 1; assay type: binding; parameters: Binding of a rabbit serum to linear peptides / Binding of a rabbit serum to looped peptides / Rabbit serum linear peptides / Rabbit serum looped peptides / Binding of a rabbit serum to linear peptides of protein N of SARS-CoV Urbani (Rabbit serum linear peptides) / Binding of a rabbit serum to looped/cyclic peptides of protein N of SARS-CoV Urbani (Rabbit serum looped peptides): unit not given here

LVVILRIGTQVLKTM
Binding of serum 1a to linear peptides of protein X2 [1]: 0.7
Binding of serum 1a to looped/cyclic peptides of protein X2 of SARS-CoV Urbani [1]: 0.6
Binding of serum 1b to linear peptides of protein X2 [1]: 0.5
Binding of serum 1b to looped/cyclic peptides of protein X2 of SARS-CoV Urbani [1]: 0.6
Binding of serum 2 to linear peptides of protein X2 [1]: 0.5
Binding of serum 2 to looped/cyclic peptides of protein X2 of SARS-CoV Urbani [1]: 0.4
Binding of serum 6 to linear peptides of protein X2 [1]: 0.4
Binding of serum 6 to looped/cyclic peptides of protein X2 of SARS-CoV Urbani [1]: 0.4
Binding of serum 37 to linear peptides of protein X2 [1]: 0.6
Binding of serum 37 to looped/cyclic peptides of protein X2 of SARS-CoV Urbani [1]: 0.4
Binding of serum 62 to linear peptides of protein X2 [1]: 0.7
Binding of serum 62 to looped/cyclic peptides of protein X2 of SARS-CoV Urbani [1]: 0.7
Binding of serum London to linear peptides of protein X2 [1]: 0.5
Binding of serum London to looped/cyclic peptides of protein X2 of SARS-CoV Urbani [1]: 0.3
Binding of serum SARS-green to linear peptides of protein X2 [1]: 0.5
Binding of serum SARS-green to looped/cyclic peptides of protein X2 of SARS-CoV Urbani [1]: 0.4
Binding of serum SARS-yellow to linear peptides of protein X2 [1]: 0.7
Binding of serum SARS-yellow to looped/cyclic peptides of protein X2 of SARS-CoV Urbani [1]: 0.5
Binding of Control Serum Blood-Bank to Looped peptides [2]: 0.8
Binding of Control serum Blood-bank to linear peptides [2]: 0.7
Binding of Control serum LUMC to linear peptides [2]: 0.7
Binding of Control serum LUMC to looped peptides [2]: 0.6
Binding of a rabbit serum to linear peptides [3]: 0.4
Binding of a rabbit serum to looped peptides [3]: 0.6

LYALIYFLQCINACR
Binding of serum 1a to linear peptides of protein X1 of SARS-CoV Urbani [1]: 0.7
Binding of serum 1a to looped/cyclic peptide (PEPSCAN-ELISA) [1]: 0.4
Binding of serum 1b to linear peptides of protein X1 of SARS-CoV Urbani [1]: 0.5
Binding of serum 1b to looped/cyclic peptide (PEPSCAN-ELISA) [1]: 0.3
Binding of serum 2 to linear peptides of protein X1 of SARS-CoV Urbani [1]: 0.5
Binding of serum 2 to looped/cyclic peptide (PEPSCAN-ELISA) [1]: 0.6
Binding of serum 6 to linear peptides of protein X1 of SARS-CoV Urbani [1]: 0.5
Binding of serum 6 to looped/cyclic peptide (PEPSCAN-ELISA) [1]: 0.7
Binding of serum 37 to linear peptides of protein X1 of SARS-CoV Urbani [1]: 0.6
Binding of serum 37 to looped/cyclic peptide (PEPSCAN-ELISA) [1]: 0.6
Binding of serum 62 to linear peptides of protein X1 of SARS-CoV Urbani [1]: 0.6
Binding of serum 62 to looped/cyclic peptide (PEPSCAN-ELISA) [1]: 0.5
Binding of serum London to linear peptides of protein X1 of SARS-CoV Urbani [1]: 0.3
Binding of serum London to looped/cyclic peptide (PEPSCAN-ELISA) [1]: 1.2
Binding of serum SARS-green to linear peptides of protein X1 of SARS-CoV Urbani [1]: 0.1
Binding of serum SARS-green to looped/cyclic peptide (PEPSCAN-ELISA) [1]: 0.2
Binding of serum SARS-yellow to linear peptides of protein X1 of SARS-CoV Urbani [1]: 0.4
Binding of serum SARS-yellow to looped/cyclic peptide (PEPSCAN-ELISA) [1]: 0.2
Binding of Control Serum Blood-Bank to Looped peptides [2]: 0.4
Binding of Control serum Blood-bank to linear peptides [2]: 0.7
Binding of Control serum LUMC to linear peptides [2]: 0.6
Binding of Control serum LUMC to looped peptides [2]: 0.6
Binding of a rabbit serum to linear peptides [3]: 0.2
Binding of a rabbit serum to looped peptides [3]: 0.6

LYDANYFVCWHTHNY
Binding of serum 1a to linear peptides of protein X1 of SARS-CoV Urbani [1]: 0.9
Binding of serum 1a to looped/cyclic peptide (PEPSCAN-ELISA) [1]: 0.6
Binding of serum 1b to linear peptides of protein X1 of SARS-CoV Urbani [1]: 0.8
Binding of serum 1b to looped/cyclic peptide (PEPSCAN-ELISA) [1]: 0.5
Binding of serum 2 to linear peptides of protein X1 of SARS-CoV Urbani [1]: 0.5
Binding of serum 2 to looped/cyclic peptide (PEPSCAN-ELISA) [1]: 0.4
Binding of serum 6 to linear peptides of protein X1 of SARS-CoV Urbani [1]: 0.7
Binding of serum 6 to looped/cyclic peptide (PEPSCAN-ELISA) [1]: 0.4
Binding of serum 37 to linear peptides of protein X1 of SARS-CoV Urbani [1]: 0.8
Binding of serum 37 to looped/cyclic peptide (PEPSCAN-ELISA) [1]: 0.6
Binding of serum 62 to linear peptides of protein X1 of SARS-CoV Urbani [1]: 0.8
Binding of serum 62 to looped/cyclic peptide (PEPSCAN-ELISA) [1]: 0.6
Binding of serum London to linear peptides of protein X1 of SARS-CoV Urbani [1]: 0.4
Binding of serum London to looped/cyclic peptide (PEPSCAN-ELISA) [1]: 0.2
Binding of serum SARS-green to linear peptides of protein X1 of SARS-CoV Urbani [1]: 0.4
Binding of serum SARS-green to looped/cyclic peptide (PEPSCAN-ELISA) [1]: 0.3
Binding of serum SARS-yellow to linear peptides of protein X1 of SARS-CoV Urbani [1]: 0.5
Binding of serum SARS-yellow to looped/cyclic peptide (PEPSCAN-ELISA) [1]: 0.3
Binding of Control Serum Blood-Bank to Looped peptides [2]: 0.7
Binding of Control serum Blood-bank to linear peptides [2]: 0.8
Binding of Control serum LUMC to linear peptides [2]: 0.7
Binding of Control serum LUMC to looped peptides [2]: 0.5
Binding of a rabbit serum to linear peptides [3]: 0.1
Binding of a rabbit serum to looped peptides [3]: 0.5

LYIIKLVFLWLLWPV
Binding of serum 1a to linear peptides of protein M of SARS-CoV Urbani [1]: 0.8
Binding of serum 1a to looped/cyclic peptides of protein M of SARS-CoV Urbani [1]: 0.6
Binding of serum 1b to linear peptides of protein M of SARS-CoV Urbani [1]: 0.6
Binding of serum 1b to looped/cyclic peptides of protein M of SARS-CoV Urbani [1]: 0.5
Binding of serum 2 to linear peptides of protein M of SARS-CoV Urbani [1]: 0.6
Binding of serum 2 to looped/cyclic peptides of protein M of SARS-CoV Urbani [1]: 0.5
Binding of serum 6 to linear peptides of protein M of SARS-CoV Urbani [1]: 0.4
Binding of serum 6 to looped/cyclic peptides of protein M of SARS-CoV Urbani [1]: 0.7
Binding of serum 37 to linear peptides of protein M of SARS-CoV Urbani [1]: 0.4
Binding of serum 37 to looped/cyclic peptides of protein M of SARS-CoV Urbani [1]: 0.6
Binding of serum 62 to linear peptides of protein M of SARS-CoV Urbani [1]: 0.4
Binding of serum 62 to looped/cyclic peptides of protein M of SARS-CoV Urbani [1]: 0.6
Binding of serum London to linear peptides of protein M of SARS-CoV Urbani [1]: 0.3
Binding of serum London to looped/cyclic peptides of protein M of SARS-CoV Urbani [1]: 0.2
Binding of serum SARS-green to linear peptides of protein M of SARS-CoV Urbani [1]: 0.5
Binding of serum SARS-green to looped/cyclic peptides of protein M of SARS-CoV Urbani [1]: 0.3
Binding of serum SARS-yellow to linear peptides of protein M of SARS-CoV Urbani [1]: 0.2
Binding of serum SARS-yellow to looped/cyclic peptides of protein M of SARS-CoV Urbani [1]: 0.3
Binding of Control Serum Blood-Bank to Looped peptides of the protein M of SARS-CoV Urbani [2]: 0.7
Binding of Control serum Blood-bank to linear peptides of the protein M of SARS-CoV Urbani [2]: 0.7
Binding of Control serum LUMC to linear peptides of the protein M of SARS-CoV Urbani [2]: 0.7
Binding of Control serum LUMC to looped peptides of the protein M of SARS-CoV Urbani [2]: 0.6
Rabbit serum linear peptides [3]: 0.1
Rabbit serum looped peptides [3]: 0.3
